Structures can show the parent of a compound that is named as a salt.
Tested on: patients who meet the 1990 ACR criteria for fibromyalgia syndrome
Test: Example 2: multicenter, double-blind, randomized, placebo-controlled monotherapy study of milnacipran for treatment of fibromyalgia (1196 patients)
Format: in vivo, human
Parameters: Mean Change from Baseline in PFI SF-36 domain score / Mean Change from Baseline in ROLP SF-36 domain score / Mean Change from Baseline in PAIN SF-36 domain score / Mean Change from Baseline in GHP SF-36 domain score: scale not given here
Conditions: for time-weighted average (AUC) of SF-36 PCS Scores, Median / time-weighted average (AUC) of SF-36 PCS Scores, Mean: Visits Tx3-Tx15, intent to treat; for Composite Pain: number of responders / Composite Syndrome: number of responders / PGIC Component: number of responders / Pain Component: number of responders / SF36 PCS Component: number of responders: 200 mg (396); for time-weighted average (AUC) of SF-36 PCS Scores, Difference from Placebo / time-weighted average (AUC) of SF-36 PCS Scores, LS Mean: Tx3-Tx15, ANCOVA model
Description: The primary outcome was a composite responder analysis assessing response rates of two doses (100 mg/day and 200 mg/day) of milnacipran as compared with placebo at Visit Tx15 (week 15).
This was a multicenter, randomized, double-blind, placebo-controlled three-arm study designed which enrolled 1196 patients who meet the 1990 ACR criteria for fibromyalgia syndrome (history of widespread pain and pain in 11 of 18 tender point sites on digital palpation), as well as the more detailed admission criteria outlined in the protocol.
Patients were randomized to receive placebo, 100 mg/day milnacipran or 200 mg/day milnacipran in a ratio of 1:1:1 (placebo=401 patients, 100 mg/day=399 patients, 200 mg/day=396 patients). The patients assigned to the two active treatment arms received a total of 12 weeks of stable-dose milnacipran exposure after the 3 weeks of dosage escalation steps, for a total of 15 weeks of drug exposure. All randomized medications (placebo and milnacipran) were administered twice a day (BID).
The primary efficacy assessment of this study was a composite responder status defined by three domains of interest evaluated at visit Tx15. The domains measured were
1) pain (measured by an electronic diary in the morning as a daily recall pain score); 2) patient global (measured by the PGIC, 1-7 scale); 3) physical function (measured by the SF-36 PCS).
The secondary efficacy parameters were time-weighted average (AUC) of the weekly average PED morning recall pain scores for Weeks 4 through 15, PGIC, and SF-36 PCS for Visit Tx3 to Visit Tx15.
The physical function domain for response analysis was measured by the Physical Component Summary of SF-36 (SF-36 PCS). The SF-36 is a brief, well-established, self-administered patient questionnaire for the assessment of health status, functional status, and quality of life. The SF-36 measures eight domains of health status: physical functioning, role limitations due to physical problems, bodily pain, general health perceptions, energy/vitality, social functioning, role limitations due to emotional problems, and mental health. An SF-36 PCS score and a mental component summary (MCS) score can be calculated by combining and weighting the various individual scales. The PCS and MCS scores have been standardized to have a mean=50, SD=10 in the general healthy US population (see, e.g., Ware, J., M. Kosinski, and J. Dewey, How to Score Version 2 of the SF-36 Health Survey (Standard & Acute Forms). 3rd ed. 2000, Lincoln, R.I.: QualityMetric).
A patient was classified as a responder for the treatment of pain of fibromyalgia if he or she reached Visit Tx15 and satisfied the following criteria: • Greater than or equal to 30% in pain reduction from baseline; • PGIC rated as “much or very much improved,” (i.e., a score of 1 or 2 on the 1-7 scale at endpoint.)
A patient was classified as a responder for the treatment of FMS if he or she satisfied the responder criteria for the treatment of pain of fibromyalgia and the following additional criterion (at visit Tx15): • Improvement on the SF-36 PCS score from baseline by an amount at least equivalent to the minimal clinically important difference, as defined in the Statistical Analysis Plan.
Table 6 summarizes 3-month results for the Baseline Observation Carried Forward (BOCF), Last Observation Carried Forward (LOCF) and study completer (OC) populations. LOCF is an analysis in which observations are carried forward to the last time point for patients who dropped out. The LOCF analysis treats the carried-forward data as observed data at the last time point. BOCF is an analysis that requires that the patient remain active in the trial to be evaluated for response. If a patient withdrew from the trial for any reason, they were classified as a non-responder irregardless of their pain and global scores at the time of withdrawal. […]

`CCN(CC)C(=O)C1(c2ccccc2)CC1CN` (racemic) [milnacipran, Z-2-aminomethyl-1-phenyl-N,N-diethylcyclopropanecarboxamide hydrochloride] was tested, and the “time-weighted average (AUC) of SF-36 PCS Scores, Median” value (“time-weighted average (AUC) … Median” for short) (100 mg, OC) was 432.8, the “Composite Pain: number of responders” value (3-months, BOCF) was 98 and the “Composite Syndrome: number of responders” value (3-months, BOCF) was 55. The “PGIC Component: number of responders” value (3-months, BOCF) was 129, the “Pain Component: number of responders” value (3-months, BOCF) was 119 and the “SF36 PCS Component: number of responders” value (3-months, BOCF) was 89. The “Composite Pain: number of responders” value (3-months, LOCF) was 117, the “Composite Syndrome: number of responders” value (3-months, LOCF) was 65 and the “PGIC Component: number of responders” value (3-months, LOCF) was 151. For the same molecule, the “Pain Component: number of responders” value (3-months, LOCF) was 158, the “SF36 PCS Component: number of responders” value (3-months, LOCF) was 109 and the “Composite Pain: responder rate” value (200 mg, 3-months, BOCF) was “(24.75%)”. For the same molecule, the “Composite Pain: responder rate difference from placebo (unlabelled line)” value (200 mg, 3-months, BOCF) was 8.29%, the “Composite Syndrome: responder rate” value (200 mg, 3-months, BOCF) was “(13.89%)” and the “Composite Syndrome: responder rate difference from placebo (unlabelled line)” value (200 mg, 3-months, BOCF) was 5.16%. For the same molecule, the “PGIC Component: responder rate” value (200 mg, 3-months, BOCF) was “(32.58%)”, the “PGIC Component: responder rate difference from placebo (unlabelled line)” value (200 mg, 3-months, BOCF) was 9.64% and the “Pain Component: responder rate” value (200 mg, 3-months, BOCF) was “(30.05%)”. For the same molecule, the “Pain Component: responder rate difference from placebo (unlabelled line)” value (200 mg, 3-months, BOCF) was 4.86%, the “SF36 PCS Component: responder rate” value (200 mg, 3-months, BOCF) was “(22.47%)” and the “SF36 PCS Component: responder rate difference from placebo (unlabelled line)” value (200 mg, 3-months, BOCF) was 1.02%. For the same molecule, the “Composite Pain: responder rate” value (200 mg, 3-months, LOCF) was “(29.55%)”, the “Composite Pain: responder rate difference from placebo (unlabelled line)” value (200 mg, 3-months, LOCF) was 11.35% and the “Composite Syndrome: responder rate” value (200 mg, 3-months, LOCF) was “(16.41%)”. For the same molecule, the “Composite Syndrome: responder rate difference from placebo (unlabelled line)” value (200 mg, 3-months, LOCF) was 6.68%, the “PGIC Component: responder rate” value (200 mg, 3-months, LOCF) was “(38.13%)” and the “PGIC Component: responder rate difference from placebo (unlabelled line)” value (200 mg, 3-months, LOCF) was 13.19%. For the same molecule, the “Pain Component: responder rate” value (200 mg, 3-months, LOCF) was “(39.90%)”, the “Pain Component: responder rate difference from placebo (unlabelled line)” value (200 mg, 3-months, LOCF) was 11.22% and the “SF36 PCS Component: responder rate” value (200 mg, 3-months, LOCF) was “(27.53%)”. The “SF36 PCS Component: responder rate difference from placebo (unlabelled line)” value (200 mg, 3-months, LOCF) was 2.09%, the “Composite Pain: m/n = # of responders/# of patients included” value (200 mg, 3-months, OC) was 98/215 and the “Composite Pain: responder rate” value (200 mg, 3-months, OC) was “(45.58%)”. For the same molecule, the “Composite Pain: responder rate difference from placebo (unlabelled line)” value (200 mg, 3-months, OC) was 20.39%, the “Composite Syndrome: m/n = # of responders/# of patients included” value (200 mg, 3-months, OC) was 55/215 and the “Composite Syndrome: responder rate” value (200 mg, 3-months, OC) was “(25.58%)”. For the same molecule, the “Composite Syndrome: responder rate difference from placebo (unlabelled line)” value (200 mg, 3-months, OC) was 12.22%, the “PGIC Component: m/n = # of responders/# of patients included” value (200 mg, 3-months, OC) was 129/255 and the “PGIC Component: responder rate” value (200 mg, 3-months, OC) was “(50.59%)”. For the same molecule, the “PGIC Component: responder rate difference from placebo (unlabelled line)” value (200 mg, 3-months, OC) was 18.76%, the “Pain Component: m/n = # of responders/# of patients included” value (200 mg, 3-months, OC) was 119/217 and the “Pain Component: responder rate” value (200 mg, 3-months, OC) was “(54.84%)”. The “Pain Component: responder rate difference from placebo (unlabelled line)” value (200 mg, 3-months, OC) was 16.44%, the “SF36 PCS Component: m/n = # of responders/# of patients included” value (200 mg, 3-months, OC) was 89/255 and the “SF36 PCS Component: responder rate” value (200 mg, 3-months, OC) was “(34.90%)”. For the same molecule, the “SF36 PCS Component: responder rate difference from placebo (unlabelled line)” value (200 mg, 3-months, OC) was 5.24%, the “time-weighted average (AUC) of SF-36 PCS Scores, Difference from Placebo” value (200 mg, LOCF) was 8.36 and the “time-weighted average (AUC) of SF-36 PCS Scores, LS Mean” value (200 mg, LOCF) was 420.38. The “time-weighted average (AUC) of SF-36 PCS Scores, Difference from Placebo” value (200 mg, OC) was 11.17, the “time-weighted average (AUC) of SF-36 PCS Scores, LS Mean” value (200 mg, OC) was 429.46 and the “Mean Change from Baseline in GHP SF-36 domain score” value (200 mg, Tx 15, Observed Cohort) was 6.6. The “Mean Change from Baseline in PAIN SF-36 domain score” value (200 mg, Tx 15, Observed Cohort) was 18.2, the “Mean Change from Baseline in PCS Score at Tx 15” value (200 mg, Tx 15, Observed Cohort) was 3.9 and the “Mean Change from Baseline in PFI SF-36 domain score” value (200 mg, Tx 15, Observed Cohort) was 6.9. The “Mean Change from Baseline in ROLP SF-36 domain score” value (200 mg, Tx 15, Observed Cohort) was 14.9, the “time-weighted average (AUC) of SF-36 PCS Scores, Mean” value (200 mg, LOCF) was 418.97 and the “time-weighted average (AUC) … Median” value (200 mg, LOCF) was 419.2. The “time-weighted average (AUC) of SF-36 PCS Scores, Mean” value (200 mg, OC) was 428.24 and the “time-weighted average (AUC) … Median” value (200 mg, OC) was 428.4.

From US20080293820A1, “METHODS FOR IMPROVING PHYSICAL FUNCTION IN FIBROMYALGIA” (Cypress Bioscience, Inc., priority 2007, published 2008)
